According to ChEMBL document CHEMBL3860047, “Modulating the strength of hydrogen bond acceptors to achieve low Caco2 efflux for oral bioavailability of PARP inhibitors blocking centrosome clustering” (Bioorg Med Chem Lett, 2016):

Assay: Dissociation constant, pKa of the compound
Type: physicochemical

Question: For CN(C)C(=O)c1ccccc1, which pKa is on record?
Answer: Its pKa is 1.2.

Question: For C[S+](C)[O-] [DIMETHYL SULFOXIDE], which pKa is on record?
Answer: Its pKa is 1.54.

Question: Which pKa does the source give for c1ccnnc1 [PYRIDAZINE] here?
Answer: Its pKa is 2.24.

Question: For NCc1ccccc1 [BENZYLAMINE], which pKa is on record?
Answer: The pKa was 9.6.
